# Assay results as given in patent US12134610B2, “Somatostatin subtype-2 receptor (SST2R) targeted therapeutics and uses thereof” (priority 2022, dated 2024).
# Where two headings read alike, the source gives them in different places. Starred links: 1 amine or outer side, 2 acyl side, 3 side chain; linkers in the order of their positions; H or OH if unused. Non-standard residues stand in square brackets, D forms with d. Residues, ends and D or L forms follow the SMILES beside them. *: point of attachment. X4 = Cc1cc(F)cc(-c2cnc(NCCNC(=O)CCOCCOCCOCCOCCC(=O)*)c(-c3nc4ccc(Cl)cc4[nH]3)c2N2CCC(N)CC2)c1; X1 = Cc1cc(F)cc(-c2cnc(NCCNC(=O)CCOCCC(=O)*)c(-c3nc4ccc(Cl)cc4[nH]3)c2N2CCC(N)CC2)c1; Dolaproine = CO[C@@H]([C@@H]1CCCN1)[C@@H](C)C(=O)O; Dil = CC[C@H](C)[C@H](NC)[C@@H](CC(=O)O)OC; PABC = O=C(OCc1ccc(N[*:1])cc1)[*:2]; X2 = C[C@@H](N*)[C@@H](O)c1ccccc1; Cya = N[C@@H](CS(=O)(=O)O)C(=O)O; Cit = NC(=O)NCCC[C@H](N)C(=O)O; NMeV = CN[C@H](C(=O)O)C(C)C
# Columns and labels:
# Assay type in all cases: cell-based
# [1] = system: NCI-H524 (ATCC) human small cell lung cancer cells
# Method in brief: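 NCI-H524 cells (5,000/well) were exposed 24 h after plating to SMDC for 2 h, 11-point two-fold series from 1 uM. After washout they grew a further 70 h. Proliferation was read by CellTiter-Glo luminescence, % inhibition taken vs untreated control, and IC50 fitted by four-parameter nonlinear regression.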
# [2] = target: T1, human somatostatin receptor subtype 2 (Homo sapiens, UniProt P30874); assay: Functional cAMP assay for SSTR2 agonists (HTRF) in CHO-K1 cells; settings: CHO-K1 cells stably expressing human SST2, 20 min
# T1 construct: expressed in transfected cells
# T1 sequence (P30874 whole entry): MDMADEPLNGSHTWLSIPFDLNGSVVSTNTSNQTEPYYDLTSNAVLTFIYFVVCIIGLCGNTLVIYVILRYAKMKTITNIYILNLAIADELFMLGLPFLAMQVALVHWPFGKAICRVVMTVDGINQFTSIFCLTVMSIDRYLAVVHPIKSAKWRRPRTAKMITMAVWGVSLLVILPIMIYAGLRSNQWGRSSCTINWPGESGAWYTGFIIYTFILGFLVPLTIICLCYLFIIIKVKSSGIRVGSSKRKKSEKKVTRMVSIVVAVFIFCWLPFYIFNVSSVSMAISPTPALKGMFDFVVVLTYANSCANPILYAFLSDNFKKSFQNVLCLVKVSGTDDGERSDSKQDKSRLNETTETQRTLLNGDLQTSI
# Method in brief: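 CHO-K1 cells stably expressing receptor, plated 4 days before assay, treated 20 min at 37° C. with compound (typically 0-10,000 nM final) plus IBMX and 1.6 μM NKH477 to raise cAMP. HTRF read, 665/620 nm ratio; cAMP from standard curve, EC50 fitted.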
# SST2 = target: T2, SST2 (Homo sapiens, UniProt P30874); assay: PathHunter CHO-K1 SST2 internalization assay; settings: PathHunter CHO-K1 SST2, 90 min
# T2 construct: host or cells: PathHunter CHO-K1 SST2 cells
# T2 sequence (P30874 whole entry): as above
# Method in brief: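 PathHunter CHO-K1 SST2 cells, seeded and grown 48 h, were exposed to 11-point 1:3 dilutions of SMDC (top final 10 uM) for 90 min at 37 C, 5% CO2. Beta-Glo luminescence was read after 60 min at room temperature. Background-corrected duplicate means were fitted by four-parameter nonlinear regression to give IC50.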
SMILES,EC50 ([1]; 2 h) [nM],EC50 ([2]; read-out: hSST2 cAMP Avg EC50) [nM],EC50 (SST2; read-out: Internalization EC50) [nM],"EC50 ([1]; 2 h treatment, washout, additional 70 h, read-out: H524 EC50) [nM]",EC50 ([2]; hSST2 cAMP Avg EC50 (nM)) [nM],EC50 (SST2; Internalization EC50 (nM)) [nM]
CC[C@H](C)[C@@H]([C@@H](CC(=O)N1CCC[C@H]1[C@H](OC)[C@@H](C)C(=O)N[C@H](C)[C@@H](O)c1ccccc1)OC)N(C)C(=O)[C@@H](NC(=O)[C@H](C(C)C)N(C)C(=O)OCc1ccc(NC(=O)[C@H](CCCNC(N)=O)NC(=O)[C@@H](NC(=O)[C@H](CS(=O)(=O)O)NC(=O)[C@H](CCC(=O)O)NC(=O)CCOCCC(=O)NCCNc2ncc(-c3cc(C)cc(F)c3)c(N3CCC(N)CC3)c2-c2nc3ccc(Cl)cc3[nH]2)C(C)C)cc1)C(C)C [Compound 105] (X1-E[Cya]V[Cit][PABC][NMeV]V[Dil][Dolaproine]-X2),290,0.18,14,–,–,–
CC[C@@]1(O)C(=O)OCc2c1cc1n(c2=O)Cc2c-1nc1cc(F)c(C)c3c1c2[C@@H](NC(=O)OCc1ccc(NC(=O)[C@H](CCCNC(N)=O)NC(=O)[C@@H](NC(=O)CCOCCOCCOCCOCCC(=O)NCCNc2ncc(-c4cc(C)cc(F)c4)c(N4CCC(N)CC4)c2-c2nc4ccc(Cl)cc4[nH]2)C(C)C)cc1C(=O)NCCN)CC3 [Compound 91],–,–,–,190,0.18,5.6
CC[C@H](C)[C@@H]([C@@H](CC(=O)N1CCC[C@H]1[C@H](OC)[C@@H](C)C(=O)N[C@H](C)[C@@H](O)c1ccccc1)OC)N(C)C(=O)[C@@H](NC(=O)[C@H](C(C)C)N(C)C(=O)OCc1ccc(NC(=O)[C@H](CCCNC(N)=O)NC(=O)[C@@H](NC(=O)[C@H](CS(=O)(=O)O)NC(=O)[C@H](CCC(=O)O)NC(=O)CCOCCOCCOCCOCCC(=O)NCCNc2ncc(-c3cc(C)cc(F)c3)c(N3CCC(N)CC3)c2-c2nc3ccc(Cl)cc3[nH]2)C(C)C)cc1)C(C)C [Compound 114] (X4-E[Cya]V[Cit][PABC][NMeV]V[Dil][Dolaproine]-X2),100,0.22,10,–,–,–
CC[C@H](C)[C@@H]([C@@H](CC(=O)N1CCC[C@H]1[C@H](OC)[C@@H](C)C(=O)N[C@H](C)[C@@H](O)c1ccccc1)OC)N(C)C(=O)[C@@H](NC(=O)[C@H](C(C)C)N(C)C(=O)OCc1ccc(NC(=O)[C@H](CCCNC(N)=O)NC(=O)[C@@H](NC(=O)[C@H](CS(=O)(=O)O)NC(=O)[C@@H](CCC(=O)O)NC(=O)CCOCCC(=O)NCCNc2ncc(-c3cc(C)cc(F)c3)c(N3CCC(N)CC3)c2-c2nc3ccc(Cl)cc3[nH]2)C(C)C)cc1)C(C)C [Compound 106] (X1-[dE][Cya]V[Cit][PABC][NMeV]V[Dil][Dolaproine]-X2),460,0.25,16,–,–,–
CC[C@H](C)[C@@H]([C@@H](CC(=O)N1CCC[C@H]1[C@H](OC)[C@@H](C)C(=O)N[C@H](C)[C@@H](O)c1ccccc1)OC)N(C)C(=O)[C@@H](NC(=O)[C@H](C(C)C)N(C)C(=O)OCc1ccc(NC(=O)[C@H](C)NC(=O)[C@@H](NC(=O)CCOCCOCCOCCOCCC(=O)NCCNc2ncc(-c3cc(C)cc(F)c3)c(N3CCC(N)CC3)c2-c2nc3ccc(Cl)cc3[nH]2)C(C)C)cc1C(=O)NCCN)C(C)C [Compound 85],2.2,0.25,13,–,–,–
COc1cc2cc(c1Cl)N(C)C(=O)CC(OC(=O)[C@@H](C)N(C)C(=O)CCS[C@H]1CC(=O)N(CC3CCC(C(=O)NCCCC[C@H](N)C(=O)NCCNc4ncc(-c5cc(C)cc(F)c5)c(N5CCC(N)CC5)c4-c4nc5ccc(Cl)cc5[nH]4)CC3)C1=O)[C@]1(C)OC1[C@@H](C)C1C[C@@](O)(NC(=O)O1)[C@H](OC)/C=C/C=C(\C)C2 (stereo partly drawn) [Compound 7],355,0.15,21,–,–,–
CC[C@H](C)[C@@H]([C@@H](CC(=O)N1CCC[C@H]1[C@H](OC)[C@@H](C)C(=O)N[C@H](C)[C@@H](O)c1ccccc1)OC)N(C)C(=O)[C@@H](NC(=O)[C@H](C(C)C)N(C)C(=O)OCc1ccc(NC(=O)[C@H](CCCNC(N)=O)NC(=O)[C@@H](NC(=O)CN2CCN(CC(=O)NCCOCCOCCOCCOCCC(=O)NCCNc3ncc(-c4cc(C)cc(F)c4)c(N4CCC(N)CC4)c3-c3nc4ccc(Cl)cc4[nH]3)CCN(CC(=O)NCCOCCOCCOCCOCCC(=O)NCCNc3ncc(-c4cc(C)cc(F)c4)c(N4CCC(N)CC4)c3-c3nc4ccc(Cl)cc4[nH]3)CC2)C(C)C)cc1)C(C)C [Compound 46],85.9,0.54,26.1,–,–,–
CC[C@H](C)[C@@H]([C@@H](CC(=O)N1CCC[C@H]1[C@H](OC)[C@@H](C)C(=O)N[C@H](C)[C@@H](O)c1ccccc1)OC)N(C)C(=O)[C@@H](NC(=O)[C@H](C(C)C)N(C)C(=O)OCc1ccc(NC(=O)[C@H](C)NC(=O)[C@@H](NC(=O)CCOCCNCCC(=O)NCCNc2ncc(-c3cc(C)cc(F)c3)c(N3CCC(N)CC3)c2-c2nc3ccc(Cl)cc3[nH]2)C(C)C)c(O[C@@H]2O[C@H](C(=O)O)[C@@H](O)[C@H](O)[C@H]2O)c1)C(C)C [Compound 156],76,0.24,25,–,–,–
CC[C@H](C)[C@@H]([C@@H](CC(=O)N1CCC[C@H]1[C@H](OC)[C@@H](C)C(=O)N[C@H](C)[C@@H](O)c1ccccc1)OC)N(C)C(=O)[C@@H](NC(=O)[C@H](C(C)C)N(C)C(=O)OCc1ccc(NC(=O)[C@H](CCCNC(N)=O)NC(=O)[C@@H](NC(=O)[C@H](CCC(=O)O)NC(=O)CCOCCC(=O)NCCNc2ncc(-c3cc(C)cc(F)c3)c(N3CCC(N)CC3)c2-c2nc3ccc(Cl)cc3[nH]2)C(C)C)cc1C(=O)NC)C(C)C [Compound 51],130,0.22,6.3,–,–,–
CC[C@H](C)[C@@H]([C@@H](CC(=O)N1CCC[C@H]1[C@H](OC)[C@@H](C)C(=O)N[C@H](C)[C@@H](O)c1ccccc1)OC)N(C)C(=O)[C@@H](NC(=O)[C@H](C(C)C)N(C)C(=O)OCc1ccc(NC(=O)[C@H](CCCNC(N)=O)NC(=O)[C@@H](NC(=O)[C@H](CCC(=O)O)NC(=O)[C@H](CS(=O)(=O)O)NC(=O)CCOCCC(=O)NCCNc2ncc(-c3cc(C)cc(F)c3)c(N3CCC(N)CC3)c2-c2nc3ccc(Cl)cc3[nH]2)C(C)C)cc1)C(C)C [Compound 113] (X1-[Cya]EV[Cit][PABC][NMeV]V[Dil][Dolaproine]-X2),200,0.33,30,–,–,–
COc1cc2cc(c1Cl)N(C)C(=O)C[C@H](OC(=O)[C@H](C)N(C)C(=O)CCSSCCNC(=O)CCOCCNC(=O)C[C@@H](N)C(=O)NCCNc1ncc(-c3cc(C)cc(F)c3)c(N3CCC(N)CC3)c1-c1nc3ccc(Cl)cc3[nH]1)[C@]1(C)O[C@H]1[C@H](C)[C@@H]1C[C@@](O)(NC(=O)O1)[C@H](OC)/C=C/C=C(\C)C2 [Compound 77],17,0.21,5.2,–,–,–
CC[C@H](C)[C@@H]([C@@H](CC(=O)N1CCC[C@H]1[C@H](OC)[C@@H](C)C(=O)N[C@H](C)[C@@H](O)c1ccccc1)OC)N(C)C(=O)[C@@H](NC(=O)[C@H](C(C)C)N(C)C(=O)OCc1ccc(NC(=O)[C@H](CCCNC(N)=O)NC(=O)[C@@H](NC(=O)CCOCCC(=O)NCCNc2ncc(-c3cc(C)cc(F)c3)c(N3CCC(N)CC3)c2-c2nc3ccc(Cl)cc3[nH]2)C(C)C)cc1C(N)=O)C(C)C [Compound 122],7.9,0.18,3.8,–,–,–
CC[C@H](C)[C@@H]([C@@H](CC(=O)N1CCC[C@H]1[C@H](OC)[C@@H](C)C(=O)N[C@H](C)[C@@H](O)c1ccccc1)OC)N(C)C(=O)[C@@H](NC(=O)[C@H](C(C)C)N(C)C(=O)OCc1ccc(NC(=O)[C@H](CCCNC(N)=O)NC(=O)[C@@H](NC(=O)CCOCCOCCOCCOCCC(=O)NCCNc2ncc(-c3cc(C)cc(F)c3)c(N3CCC(O)CC3)c2-c2nc3ccc(Cl)cc3[nH]2)C(C)C)cc1)C(C)C [Compound 31],1060,1700,> 1000,–,–,–
CC[C@H](C)[C@@H]([C@@H](CC(=O)N1CCC[C@H]1[C@H](OC)[C@@H](C)C(=O)N[C@H](C)[C@@H](O)c1ccccc1)OC)N(C)C(=O)[C@@H](NC(=O)[C@H](C(C)C)N(C)C(=O)OCc1ccc(NC(=O)[C@H](CCCNC(N)=O)NC(=O)[C@@H](NC(=O)[C@H](CS(=O)(=O)O)NC(=O)CCOCCOCCOCCOCCC(=O)NCCNc2ncc(-c3cc(C)cc(F)c3)c(N3CCC(N)CC3)c2-c2nc3ccc(Cl)cc3[nH]2)C(C)C)cc1C(=O)NCCN)C(C)C [Compound 100],6.4,0.14,3.3,–,–,–
